The text below walks through data of US20030082135A1, “Pathway of RANTES-mediated chemokine synthesis in astrocytes and methods of use therefor” (priority 2001, published 2003).

Series [1] relates to primary neonatal mouse astrocyte cultures. The experiment in a line: RNase protection assay (RPA) for chemokine/cytokine transcripts in astrocyte cultures. The series is classed as cell-based. On the procedure: Astrocyte isolation and culture. […] RNA isolation and RNase protection assay (RPA). […] RNase protection assays (RPA) for chemokine message were conducted with multi-probe templates according to the manufacture's protocol (RiboQuant assay kit, BD-PharMingen, San Diego, Calif.). Gels were scanned and radioactive bands quantitated using a phosphoimager (Molecular Dynamics, Sunnyvale, Calif.). Levels of uniformly expressed housekeeping genes large ribosomal subunit protein 32-3A (L32) or glyceraldehyde-3-phosphate dehydrogenase (GAPDH), were used for normalization. The value of each chemokine receptor band divided by the value of the indicated housekeeping gene band in the same sample yielded the relative intensity. Normalized receptor expression represents the ratio of the relative intensity following treatment with chemokine versus the relative intensity of medium alone. Treatment with pharmacological inhibitors. Astrocytes were washed and resuspended in serum-and insulin-free complete medium and starved overnight. Cells were treated at 37° C. for 1 h with 100 ng/ml Pertussis toxin (PTx) before addition of RANTES or IL-1. […] The cells were harvested after a 3 h incubation with RANTES; RNA was prepared and assayed by RPA.

The test system of another series is PKA. The experiment in a line: PKA activity assay on lysates of treated astrocytes. The series is classed as cell-based, mouse. On the procedure:
PKA activity assay. PKA activity was determined using a commercially available kit (Calbiochem, San Diego, Calif.) according to manufacturer's recommendations. Primary mouse astrocytes were grown in 6-well plates and then stimulated as described and lysed in 100 μl buffer (same buffer used for Western blotting) for 30 min. Five μl of the lysates were incubated with 20 μl PKA reaction mixture at 30° C. for 30 min. The reaction was terminated by adding 10 μl stop solution and ^32P radioactivity was counted.

In series [2] the test system is MEK, ERK1/2, p90RSK, p38, SAPK/JNK phosphorylation in astrocytes. Nature of the series: Western blotting of phosphorylated MAP kinase pathway proteins in astrocyte lysates. Type of series: cell-based, mouse. On the procedure: SDS-PAGE and Western blotting. Astrocytes were treated for the indicated time with media or 100 ng/ml RANTES, eotaxin, or other materials as indicated. Cells (3×10^5 in Examples 1-3, or 2×10^4 in later Examples) were resuspended in 100 μl buffer (50 mM HEPES, pH 7.5, 150 mM NaCl, 2 mM EDTA, 2 mM EGTA, 1% Triton X-100, 50 mM Sodium fluoride, 5 mM Sodium pyrophosphate, 50 mM Sodium β-glycerophosphate, 1 mM Sodium Ortho-vanadate, 1 mM DTT, 1 mM PMSF, 10 μg/ml Leupeptin, and 10 μg/ml Aprotinin). Protein concentration of the whole cell extract was determined by BCA protein assay kit (Pierce, Rockford, Ill.). Samples (10 μg) were loaded and separated on a 10% SDS-polyacrylamide gel. After transfer to Hybond ECL nitrocellulose membrane (Amersham Pharmacia Biotech Inc, Piscataway, N.J.) or Zeta-probe blotting membranes (Bio-Rad, Richmond Calif.) blots were blocked overnight with 5% BSA at 4° C., and probed with the antibody indicated. Antibody against unphosphorylated or phosphorylated erk (Cell Signaling, Beverly, Mass.) was used at 1 μg/ml. Appropriate anti-immunoglobulin reagents were used to develop the blots by enhanced chemiluminescence (Amersham Pharmacia Biotech Inc, Piscataway, N.J.).
Little is known about the signaling mechanisms involved in astrocyte respones to chemokines. To examine components of the RANTES signal transduction pathway, phosphorylation of the MAP kinase kinase (MEK) and mitogen activated protein (MAP) kinases was examined. To minimize basal kinase activity, astrocytes were starved of serum for at least 3 h before treatment with chemokine. Whole cell lysates were separated by SDS-PAGE and examined by Western blot. Antibodies that specifically react with phosphorylated MEK or phosphorylated extracellular signal-related kinase (ERK) were used to detect the active kinases.

The subject of series [3] is astrocytes.
In a further series the test system is murine KC promoter. Nature of the series: KC promoter luciferase reporter in transfected astrocytes. Type of series: cell-based, mouse. The note with it: U0126 indicated amounts or 5 μM SB203580 plus 100 ng/ml RANTES, 24 h. An excerpt: Plasmids, transient transfection, and luciferase activity assay. The KC reporter plasmid was constructed by using a luciferase reporter gene pGL-3 basic vector (Promega, Madison, Wis.) driven by mouse KC promoter (−2878/+43). Wild-type p90RSK expression (WT pKH3) and dominant negative p90RSK expression (ΔΔ RSK pKH3) plasmids were obtained from Dr. John Blenis, Harvard Medical School. Astrocytes were transiently transfected with Lipofectamine 2000 reagent (Life Technologies, Gaithersburg, Md.) according to the manufacturer's protocol. After 24 h, the cells were stimulated with RANTES in absence or presence of the indicated inhibitor, and luciferase activity was determined after an additional 24 h, by the procedure according to the manufacturer (Promega, Madison, Wis.). Relative luciferase activity was normalized for cell lysate protein concentration as determined by BCA protein assay kit (Pierce, Rockford, Ill.). The Relative Fold Induction is the relative intensity of the experimental sample divided by the relative intensity of the medium control.
To establish whether RANTES up-regulation of chemokine production is mediated by activation of promoter elements, primary astrocyte cultures were transiently transfected with a murine KC promoter-luciferase construct, and reporter activity was monitored after RANTES treatment.
For orientation: In a reporter assay the amount or activity of a reporter protein is the signal.

In series [4] the test system is CXCR4, CX3CR1, CCR1, CCR5 transcripts in astrocytes. The experiment in a line: RPA for chemokine receptor transcripts in astrocytes. As to conditions: average, pooled results of 3-4 experiments. Type of series: cell-based, mouse. On the procedure: RNA isolation and RNase protection assay (RPA). RNA was prepared as in Luo, Y., et al. 1999. J Immunol 163:3985. RNase protection assays (RPA) for chemokine message were conducted with multi-probe templates according to the manufacture's protocol (RiboQuant assay kit, BD-PharMingen, San Diego, Calif.). Gels were scanned and radioactive bands quantitated using a phosphoimager (Molecular Dynamics, Sunnyvale, Calif.). Levels of uniformly expressed housekeeping genes large ribosomal subunit protein 32-3A (L32) or glyceraldehyde-3-phosphate dehydrogenase (GAPDH), were used for normalization. The value of each chemokine receptor band divided by the value of the indicated housekeeping gene band in the same sample yielded the relative intensity. Normalized receptor expression represents the ratio of the relative intensity following treatment with chemokine versus the relative intensity of medium alone.
Treatment with the RANTES-related chemokines RANTES or eotaxin, or with TNF-α also found to down-regulate expression of CX3CR1 transcripts. In addition, CXCR4 mRNA levels were decreased, while the levels of CCR1 transcripts were elevated. In contrast, little or no regulation of CCR5 was noted. The pooled results of 3-4 experiments indicate eotaxin caused an average 60% decrease in CXCR4 (P less than 0.01) and a 70% decrease in CX3CR1 mRNA (P less than 0.02) (FIG. 8.B). The effects of RANTES stimulation were similar with an average 70 and 90% reduction in CXCR4 and CX3CR1 transcripts, respectively (P less than 0.01).

Series [5] deals with cultured mouse astrocytes. Nature of the series: RT-PCR for KC message in astrocytes. Type of series: cell-based.
The test system of series [6] is astrocytes. Nature of the series: ELISA of KC, TNF-α and MCP-1 protein in astrocyte culture supernatants. The series is classed as cell-based, mouse. The note with it: 48 h, 1.5 to 100 ng/ml tested.

“Also recorded” adds a separate entry of the source. A value given as a limit tells only on which side of the number the result lay.

As to `O=C1Nc2ccc(I)cc2/C1=C/c1cc(Br)c(O)c(Br)c1` [Raf-1 inhibitor, reference compound], the “effect on RANTES-induced chemokine/cytokine gene expression” value in series [1] (increasing doses, 1 h pretreatment, 100 ng/ml RANTES 3 h) is given as “blocked gene expression in a dose dependent fashion”. For the same molecule, the “effect on PKA activity” value with PKA is on record as “neither U0126 nor Raf-1 inhibitor decreased PKA activity”. Besides, in series [2], the “effect on MEK and erk1/2 phosphorylation induced by RANTES” value is recorded as “blocked”. Besides, in the series with astrocytes [3], the “effect on astrocyte viability or expression of the housekeeping genes L32 and GAPDH” value was “failed to affect”.
`N#CC(=C(/N)Sc1ccccc1N)/C(C#N)=C(\N)Sc1ccccc1N` [U0126, reference compound]: in series [1], the “effect on H-89 induced chemokine/cytokine transcription” value is on record as “inhibited; also recorded: blocked”; the “effect on RANTES-induced chemokine message” value is given as “blocked induction of chemokine transcripts”; the “effect on background level of RANTES transcript” value is reported as “failed to diminish”; the “inhibition of RANTES-induced TNF-α and chemokine transcription” value is on record as “partially inhibited; also recorded: completely inhibited”. In addition, the “effect on PKA activity” value with PKA is reported as “neither U0126 nor Raf-1 inhibitor decreased PKA activity”. For the same molecule, the “effect on RANTES-induced KC reporter activity” value in the series with murine KC promoter is recorded as “inhibit reporter activity”. The “effect on erk1/2 and RSK phosphorylation induced by H-89” value in series [2] (10-50 μM U0126 or 5 μM SB203580, 10 μM H-89 for 20 min) is given as “blocked”. For the same molecule, the “effect on RANTES-induced RSK phosphorylation” value in series [2] (varying concentrations before 100 ng/ml RANTES, 20 min) was “block RSK phosphorylation in a dose dependent fashion”.

B1: eotaxin: recombinant mouse chemokine, RANTES-related, purchased from R&D System (protein, UniProt P48298 24-97, looked up)
Eotaxin: HPGSIPTSCCFIMTSKKIPNTLLKSYKRITNNRCTLKAIVFKTRLGKEICADPKKKWVQDATKHLDQKLQTPKP
On to B1, for which, in series [1] (100 ng/ml), the “production of chemokine transcripts by astrocytes from mice deficient for CCR1, CCR2, CCR3, or CCR5” value is recorded as “specifically responded”. Besides, the “expression of TNF-α, RANTES, KC, MIP-1α, MIP-2, and MCP-1 transcripts” value in series [1] (BALB/cJ neonatal astrocytes, chemokine for 6 h) is “up-regulated”. In series [1] (boiled for 30 min before incubation with astrocytes), the “ability to induce chemokine transcripts after boiling” value is reported as “completely destroyed”. In series [4], the “decrease in CX3CR1 mRNA” value was found to be 70% and the “decrease in CXCR4 mRNA” value worked out at 60%. For the same molecule, the “synthesis of KC message” value in series [5] is “induce synthesis of KC message”. Also, the “concentration inducing KC protein” value in the series on astrocytes [6] is no less than 25 ng/mL.
